The values that follow come from patent publication US8796253B2, “Heteroaryl substituted pyrazole derivatives useful for treating hyper-proliferative disorders and diseases associated with angiogenesis” (Bayer Intellectual Property GmbH, priority 2007, dated 2014).

Structures are written as SMILES.

The test system of the test is HCT-116 cells stably transfected with a Luciferase reporter gene under the control of HIF-responsive element. In words: HIF-Luciferase Assay. Format: cell-based. The following applies: Homo sapiens, HCT-116, HIF-Luciferase Assay, HCT-116 reporter cells, overnight at 1% oxygen. The method, then: HCT-116 cells stably transfected with a Luciferase reporter gene under the control of HIF-responsive element were plated in white 96- or 384-well plates at 30,000 or 5,000 cells/well, respectively, in 50 μL/well media (RPMI with 10% fetal bovine serum and 100 μg/mL Hygromycin). Cells were incubated overnight at 37° C. in a humidified incubator containing 5% CO2 under normal oxygen. The next day test compounds were added to the wells at various concentrations (0-10 μM, 0.1% final DMSO concentration) and placed in a hypoxic chamber overnight at 1% oxygen. Following the exposure to hypoxic conditions, 50 μL/well of Bright Glo reagent (Promega, Wisconsin, USA) was added to the wells and luminescence was measured after 5 min. Cells incubated under normal oxygen levels were used as background control. […] Compounds that have IC50 values between 1 μM and 10 μM include those of Examples 8, 16, 38, 39, 40, 41, 42, 43, 47, 48, 53, 54, 56, 57, 66, 69, and 72.

The term IC50 denotes the concentration that inhibits the measured activity by half. The low end stands for greater potency, the high end for weaker potency. For `Cc1ccc(Cn2nc(-c3nc4c(C)cccc4[nH]3)cc2C)cc1` [Example 40, 4-methyl-2-[5-methyl-1-(4-methylbenzyl)-1H-pyrazol-3-yl]-1H-benzimidazole], for the setting “potency groups”, the IC50 fell in the range of 1 to 10 µM.
Still for that read-out and setting: to `Cc1ccc(Cn2nc(-c3nc4ccc(-c5ccccc5F)cc4[nH]3)cc2C)cc1` [Example 60, 6-(2-fluorophenyl)-2-[5-methyl-1-(4-methylbenzyl)-1H-pyrazol-3-yl]-1H-benzimidazole] belongs not above 1 µM.
In turn, `Cc1ccc(Cn2nc(-c3nc4cc(Cc5ccccc5)ccc4o3)cc2C)cc1` [Example 33, 5-benzyl-2-[5-methyl-1-(4-methylbenzyl)-1H-pyrazol-3-yl]-1,3-benzoxazole] displayed an IC50 (group >10, unit inferred) of more than 10 µM.
For `Cc1ccc(Cn2nc(-c3nc4cc(C(C)(C)c5ccccc5)ccc4o3)cc2C)cc1` [Example 32, 2-[5-methyl-1-(4-methylbenzyl)-1H-pyrazol-3-yl]-5-(1-methyl-1-phenylethyl)-1,3-benzoxazole], the IC50 (group >10, unit inferred) is more than 10 µM.
In turn, `Cc1ccc(Cn2nc(-c3nc(-c4ccc(C(F)(F)F)nc4)no3)cc2C)cc1` [Example 17, 5-{5-[5-methyl-1-(4-methylbenzyl)-1H-pyrazol-3-yl]-1,2,4-oxadiazol-3-yl}-2-(trifluoromethyl)pyridine] registered a half-maximal inhibitory concentration (IC50) (potency groups) not above 1 µM.
`Cc1ccc(Cn2nc(-c3nc(-c4ccc(N5CCOCC5=O)cc4)no3)cc2C)cc1` [Example 26, 4-(4-{5-[5-methyl-1-(4-methylbenzyl)-1H-pyrazol-3-yl]-1,2,4-oxadiazol-3-yl}phenyl)morpholin-3-one] came in with an IC50 (potency groups) not above 1 µM.
For the molecule `Cc1ccc(Cn2nc(-c3nc(-c4ccc(N5CCCC(C)C5)cc4)no3)cc2C)cc1` (stereo not shown) [Example 6, 3-methyl-1-(4-{5-[5-methyl-1-(4-methylbenzyl)-1H-pyrazol-3-yl]-1,2,4-oxadiazol-3-yl}phenyl)piperidine], for the setting “potency groups”, the IC50 was not above 1 µM.
